In brackets after ≈: the same amount, converted by molar mass. Non-standard residues stand in square brackets, D forms with d. Residues, ends and D or L forms follow the SMILES beside them. N(1-naphthylmethyl)Gly = O=C(O)CNCc1cccc2ccccc12; d1Nal = N[C@H](Cc1cccc2ccccc12)C(=O)O; N(4-MeBn)Gly = Cc1ccc(CNCC(=O)O)cc1; dNle = CCCC[C@@H](N)C(=O)O; NBuGly = CCCCNCC(=O)O; Nlys = NCCCCNCC(=O)O
How the values were obtained:
[1] = tested on: Methicillin resistant Staphylococcus pseudintermedius, (C22963); type: cell-based; conditions: 18 h
[2] = tested on: Staphylococcus aureus (ATCC 29213); type: cell-based; conditions: ATCC 29213, 18 h
[3] = tested on: Acinetobacter baumannii, 27065; type: cell-based; conditions: 27065, 18 h
Description: (§1) To explore the antimicrobial activity of the library of peptides and peptidomimetics, they were tested against Acinetobacter baumannii, Corynebacterium auriscanis, Escherichia coli, Enterococcus faecalis, Enterococcus faecium, Klebsiella pneumonia, Proteus mirabilis, and Pseudomonas aeruginosa. Bacteria grown on agar plates for 18 h at 37 °C were diluted to ~1 × 10^8 CFU/mL in Mueller–Hinton broth (MHB). Two-fold serial dilutions of peptides and peptidomimetics in MHB II were inoculated with bacteria to achieve a final concentration of 5 × 10^5 CFU/mL in polypropylene 96 U-well microtiter plates (Almeco, Esbjerg, Denmark), followed by incubation at 37 °C in ambient air for 18 h. The MIC values were determined as the lowest concentration showing no visible bacterial growth. Experiments were performed twice (in technical triplicates) on two different days.

[4] = tested on: Corynebacterium auriscanis, 31551; type: cell-based; conditions: 18 h
Description: as §1

[5] = tested on: Enterococcus faecalis, 27404; type: cell-based; conditions: 27404, 18 h
Description: as §1

[6] = tested on: Enterococcus faecium, 30951; type: cell-based; conditions: 30951, 18 h
Description: as §1

[7] = tested on: Klebsiella pneumoniae, 26233; type: cell-based; conditions: 26233, 18 h
Description: as §1

[8] = tested on: Proteus mirabilis, 25178; type: cell-based; conditions: 25178, 18 h
Description: as §1

[9] = tested on: Pseudomonas aeruginosa (ATCC 27853); type: cell-based; conditions: ATCC 27853, 18 h
Description: as §1

[10] = tested on: E. coli, 30235; type: cell-based, Escherichia coli; conditions: 30235, 18 h
Description: as §1

[11] = tested on: DNA synthesis in MRSP E104; test: Macromolecule biosynthesis assay, DNA (3H-thymidine); type: cell-based, Staphylococcus pseudintermedius; conditions: 0.5× MIC, 20 min incubation, MRSP E104, 3H-thymidine; means of two experiments
Description: (§2) The effect on DNA and cell wall synthesis was investigated after 20 min of incubation of MRSP E104 with the precursors ^3H-thymidine and ^3H-glucosamine hydrochloride, respectively, as previously reported by Ling et al.. Following macromolecule precipitation, radioactivity was counted using scintillation fluid. Incorporation of ^3H- or ^14C-labeled thymidine has been used to investigate DNA replication and transcriptional activity during the cell cycle; ^3H-glucosamine hydrochloride has been used in a mode of action study for the antimicrobial peptide plectasin, which targets the cell wall precursor lipid II [44].
(§3) Macromolecules (DNA and cell wall) biosynthesis rates were measured using strain MRSP E104 following a protocol adapted from Ling et al.. Briefly, overnight culture of E104 was diluted 1:100 in MHB and freshly grown up to OD 0.2 at 600 nm. Grown cells were pelleted down by centrifugation and then resuspended in fresh MHB medium followed by incubation for 20 min on a dry heat-bath with D2 or analogues or nisin and radiolabeled precursor: (50 µCi) ^3H-Thymidine (PerkinElmer) and (5 µCi) ^3H-glucosamine hydrochloride per mL for DNA and cell wall, respectively. A positive control without antimicrobials was maintained that corresponds to 100% synthesis rate. After 20 min of incubation, samples were precipitated with equal volume of cold 30% trichloroactic acid (TCA Sigma, Søborg, Denmark) on ice. After 15 to 30 min of incubation on ice, precipitates were filtered on a membrane filter and subsequently washed twice with cold 15% TCA and twice with cold water using a vacuum manifold. Next, filters were air dried overnight and then moved to 10 mL scintillation vials. Finally, 3 mL scintillation fluid was added to each vial and ^3H count was taken in Beckman Coulter LS6500 liquid scintillation counter for 1 min. The radioactive counts of the control samples with no antimicrobial exposure were considered to have 100% precursor incorporation and macromolecule synthesis. The percentage rates of macromolecule synthesis in the antimicrobial-exposed samples were calculated compared to control. Each experiment was performed twice with a technical replicate, and the average rates of synthesis were plotted.

[12] = tested on: cell wall synthesis in MRSP E104; test: Macromolecule biosynthesis assay, cell wall (3H-glucosamine hydrochloride); type: cell-based, Staphylococcus pseudintermedius; conditions: 0.5× MIC, 20 min incubation, MRSP E104, 3H-glucosamine hydrochloride; means of two experiments
Description: as §2, §3

[13] = tested on: S. aureus; test: MIC against canine clinical S. aureus strains (Table S2); type: cell-based, Staphylococcus aureus; conditions: for MIC S. aureus 25054: 25054, 8 G6, dog, 2009; for MIC S. aureus 25054 / MIC S. aureus 28264 / MIC S. aureus 36968: wound; for MIC S. aureus 27266: 27266, 16 G9, dog, 2010; for MIC S. aureus 27266 / MIC S. aureus 37708-2 / MIC S. aureus 38200 / MIC S. aureus 38565-1: skin; for MIC S. aureus 28264: 28264, 20 B1, dog, 2011; for MIC S. aureus 30935: 30935, 24 B9, dog, 2013; for MIC S. aureus 30935 / MIC S. aureus 37595: joint; for MIC S. aureus 36968: 36968, 61 A9, dog; for MIC S. aureus 36968 / MIC S. aureus 37595 / MIC S. aureus 37708-2 / MIC S. aureus 38200: 2016; for MIC S. aureus 37595: 37595, 65 D2, dog; for MIC S. aureus 37708-2: 37708-2, 66 C6, dog; for MIC S. aureus 38200: 38200, 68 E9, dog; for MIC S. aureus 38565-1: 38565-1, 70 A5, dog; for MIC S. aureus 38565-1 / MIC S. aureus 38841: 2017; for MIC S. aureus 38841: 38841, 70 G5, dog, urine
Description: (§4) Similarly, in this study, to assess the degree of selectivity for S. pseudintermedius, D2 and D2D were tested against a collection of S. aureus and MSSP strains (Table S2).
as §1

[14] = tested on: S. pseudintermedius; test: MIC against canine clinical S. pseudintermedius strains (Table S2); type: cell-based, Staphylococcus pseudintermedius; conditions: for MIC S. pseudintermedius 22963: 22963, 3 B9, dog, 2007; for MIC S. pseudintermedius 26071: 26071, 11 E5, dog; for MIC S. pseudintermedius 26071 / MIC S. pseudintermedius 26092-2 / MIC S. pseudintermedius 33228 / MIC S. pseudintermedius 37526-1 / MIC S. pseudintermedius 37535-1: skin; for MIC S. pseudintermedius 26071 / MIC S. pseudintermedius 26092-2: 2009; for MIC S. pseudintermedius 26092-2: 26092-2, 11 E4, dog; for MIC S. pseudintermedius 26959: 26959, 15 F8, dog, 2010; for MIC S. pseudintermedius 26959 / MIC S. pseudintermedius 27364: wound; for MIC S. pseudintermedius 27364: 27364, 17 A7, dog; for MIC S. pseudintermedius 27364 / MIC S. pseudintermedius 27382: 2011; for MIC S. pseudintermedius 27382: 27382, 17 B8, dog; for MIC S. pseudintermedius 27382 / MIC S. pseudintermedius 31524 / MIC S. pseudintermedius 35890: ear; for MIC S. pseudintermedius 31524: 31524, 54 C3, dog, 2013; for MIC S. pseudintermedius 33228: 33228, 55 E2, dog, 2014; for MIC S. pseudintermedius 35890: 35890, 59 B8, dog, 2015; for MIC S. pseudintermedius 37526-1: 37526-1, 65 B4, dog; for MIC S. pseudintermedius 37526-1 / MIC S. pseudintermedius 37535-1: 2016; for MIC S. pseudintermedius 37535-1: 37535-1, 65 B6, dog; for MIC S. pseudintermedius 38637: 38637, 70 C3, dog, wound 2017; for MIC S. pseudintermedius 38820: 38820, 70 F9, dog, urine 2017
Description: as §4, §1

Structure (SMILES)	MIC MRSP [1]	MIC SA [2]	MIC Acinetobacter baumannii [3]	MIC Corynebacterium auriscanis [4]	MIC Enterococcus faecalis [5]	MIC Enterococcus faecium [6]	MIC Klebsiella pneumoniae [7]	MIC Proteus mirabilis [8]	MIC PA [9]	MIC E. coli [10]	inhibition of DNA biosynthesis rate [11]	effect on (inhibition of) cell wall synthesis [12]	MIC S. aureus 25054 [13]	MIC S. aureus 27266 [13]	MIC S. aureus 28264 [13]	MIC S. aureus 30935 [13]	MIC S. aureus 36968 [13]	MIC S. aureus 37595 [13]	MIC S. aureus 37708-2 [13]	MIC S. aureus 38200 [13]	further results
CCCC[C@@H](NC(=O)[C@@H](CCCCN)NC(=O)[C@@H](Cc1cccc2ccccc12)NC(=O)[C@@H](CCCCN)NC(=O)[C@@H](Cc1ccccc1)NC(=O)[C@@H](Cc1cccc2ccccc12)NC(=O)[C@@H](CCCCN)NC(=O)[C@H](N)CCCCN)C(N)=O [D2D] (H-[dK][dK][d1Nal][dF][dK][d1Nal][dK][dNle]-NH2)	4 µg/mL (≈ 3.38 µM)	4 µg/mL (≈ 3.38 µM)	16 µg/mL (≈ 13.5 µM)	2 µg/mL (≈ 1.69 µM)	8 µg/mL (≈ 6.75 µM)	4 µg/mL (≈ 3.38 µM)	8 µg/mL (≈ 6.75 µM)	>64 µg/mL	4 µg/mL (≈ 3.38 µM)	4 µg/mL (≈ 3.38 µM)	37%	39%	2 µg/mL (≈ 1.69 µM)	2 µg/mL (≈ 1.69 µM)	4 µg/mL (≈ 3.38 µM)	2 µg/mL (≈ 1.69 µM)	4 µg/mL (≈ 3.38 µM)	2 µg/mL (≈ 1.69 µM)	4 µg/mL (≈ 3.38 µM)	2 µg/mL (≈ 1.69 µM)	MIC S. aureus 38565-1 [13]: 2 µg/mL (≈ 1.69 µM); MIC S. aureus 38841 [13]: 4 µg/mL (≈ 3.38 µM); MIC S. pseudintermedius 22963 [14]: 2 µg/mL (≈ 1.69 µM); MIC S. pseudintermedius 26071 [14]: 1 µg/mL (≈ 0.844 µM); MIC S. pseudintermedius 26092-2 [14]: 1 µg/mL (≈ 0.844 µM); MIC S. pseudintermedius 26959 [14]: 2 µg/mL (≈ 1.69 µM); MIC S. pseudintermedius 27364 [14]: 2 µg/mL (≈ 1.69 µM); MIC S. pseudintermedius 27382 [14]: 2 µg/mL (≈ 1.69 µM); MIC S. pseudintermedius 31524 [14]: 2 µg/mL (≈ 1.69 µM); MIC S. pseudintermedius 33228 [14]: 2 µg/mL (≈ 1.69 µM); MIC S. pseudintermedius 35890 [14]: 2 µg/mL (≈ 1.69 µM); MIC S. pseudintermedius 37526-1 [14]: 2 µg/mL (≈ 1.69 µM); MIC S. pseudintermedius 37535-1 [14]: 2 µg/mL (≈ 1.69 µM); MIC S. pseudintermedius 38637 [14]: 2 µg/mL (≈ 1.69 µM); MIC S. pseudintermedius 38820 [14]: 2 µg/mL (≈ 1.69 µM)
CCCCN(CC(N)=O)C(=O)CN(CCCCN)C(=O)CN(Cc1cccc2ccccc12)C(=O)CN(CCCCN)C(=O)CN(Cc1ccc(C)cc1)C(=O)CN(Cc1cccc2ccccc12)C(=O)CN(CCCCN)C(=O)CNCCCCN [D2] (H-[Nlys][Nlys][N(1-naphthylmethyl)Gly][N(4-MeBn)Gly][Nlys][N(1-naphthylmethyl)Gly][Nlys][NBuGly]-NH2)	4 µg/mL (≈ 3.34 µM)	8 µg/mL (≈ 6.67 µM)	>64 µg/mL	2 µg/mL (≈ 1.67 µM)	>64 µg/mL	16 µg/mL (≈ 13.3 µM)	>64 µg/mL	>64 µg/mL	16 µg/mL (≈ 13.3 µM)	64 µg/mL (≈ 53.4 µM)	< 5%	28%	4 µg/mL (≈ 3.34 µM)	8 µg/mL (≈ 6.67 µM)	4 µg/mL (≈ 3.34 µM)	4 µg/mL (≈ 3.34 µM)	4 µg/mL (≈ 3.34 µM)	4 µg/mL (≈ 3.34 µM)	8 µg/mL (≈ 6.67 µM)	4 µg/mL (≈ 3.34 µM)	MIC S. aureus 38565-1 [13]: 4 µg/mL (≈ 3.34 µM); MIC S. aureus 38841 [13]: 8 µg/mL (≈ 6.67 µM); MIC S. pseudintermedius 22963 [14]: 1 to 2 µg/mL; MIC S. pseudintermedius 26071 [14]: 1 µg/mL (≈ 0.834 µM); MIC S. pseudintermedius 26092-2 [14]: 1 µg/mL (≈ 0.834 µM); MIC S. pseudintermedius 26959 [14]: 2 µg/mL (≈ 1.67 µM); MIC S. pseudintermedius 27364 [14]: 1 µg/mL (≈ 0.834 µM); MIC S. pseudintermedius 27382 [14]: 1 µg/mL (≈ 0.834 µM); MIC S. pseudintermedius 31524 [14]: 1 µg/mL (≈ 0.834 µM); MIC S. pseudintermedius 33228 [14]: 1 µg/mL (≈ 0.834 µM); MIC S. pseudintermedius 35890 [14]: 1 µg/mL (≈ 0.834 µM); MIC S. pseudintermedius 37526-1 [14]: 1 µg/mL (≈ 0.834 µM); MIC S. pseudintermedius 37535-1 [14]: 1 µg/mL (≈ 0.834 µM); MIC S. pseudintermedius 38637 [14]: 1 µg/mL (≈ 0.834 µM); MIC S. pseudintermedius 38820 [14]: 1 µg/mL (≈ 0.834 µM)
